Patent US8377651B2, “Method for detecting Escherichia coli” (Systagenix Wound Management (US), Inc., priority 2003, dated 2013)
Primed or numbered codes have the meaning given here. No end group written: not given here. *: point of attachment. Dabcyl″ = CN(C)c1ccc(/N=N/c2ccc(C(=O)*)cc2)cc1; EDANS = O=S(=O)(O)c1cccc2c(NCCN*)cccc12; Dabcyl′ = not defined here

What was measured:
E. coli cultures = test: Biosensor: his-tagged peptide linked to nickel binding resin exposed to cultures; type: cell-based, Escherichia coli; settings: E. coli cultures versus BHI media without bacteria
Protocol: Metal chelate (affinity binding) interactions can provide a stronger bond to biological molecules. A his-tag built into the peptide substrate, for example T4 can be used to allow linkage to a nickel binding resin. The resin is incubated with a suitable culture, for example, E. coli for 30 minutes at 37° C. After centrifugation the buffer is removed and the pelleted resin is imaged. The fluorescence produced by the peptide is then detected.

E. coli [1] = test: Protease assay in reaction buffer with 5% fetal bovine serum; type: cell-based, Escherichia coli; settings: buffer plus 5% fetal bovine serum; FIG. 3
Protocol: (§1) The bacteria were grown in an incubator overnight at 37° C. in 5 mL BHT (Brain Heart Infusion) media. Each of the resulting cultures was split into two samples. One was used as a culture, and the other was spun down by centrifugation and the supernatant was collected. The assays were run in 20 mM tris buffer (pH 7.4) with 150 mM NaCl added. The reaction was carried out with 5 μL of culture or supernatant and 5 μL of peptide substrate (10 mg/mL in water) in 100 μL total volume at 37° C. The reaction was followed on a fluorimetric plate reader using an excitation wavelength of 355 nm and an emission wavelength of 485 nm.
The 12 peptide substrate was further tested for cross reactivity with the types of conditions and molecules that may be present in a wound environment. A fluid that may be present in a wound, at least initially, is serum. In order to test for reactivity with serum the reaction buffer was modified to by addition 5% fetal bovine serum and the protease assay was repeated, using the 12 peptide substrate.

[2] = system: secreted protease from E. coli; test: Protease assay with bacterial culture supernatants; type: biochemical, Escherichia coli; settings: for protease activity with culture supernatant: E. coli culture supernatant
Protocol: as §1
(§2) To test whether the protease is membrane associated, as expected for E. coli OmpT, the protease assays were repeated with the supernatants obtained from each bacterial culture.

[3] = system: secreted protease from any of the other bacteria tested; test: Protease assay with bacterial culture supernatants; type: biochemical
Protocol: as §1, §2

E. coli cells [4] = test: Protease assay, labeled peptide substrate with bacterial culture (cells and media); type: cell-based, Escherichia coli; settings: for protease activity / cleavage of substrate (relative fluorescence): E. coli culture incl. cells and media, 20 mM tris pH 7.4, 150 mM NaCl, 37° C., ex 355 nm, em 485 nm, FIG. 1, 2
Protocol: (§3) The peptide substrates used here were labeled with the fluorescent probe edans (5((2-aminoethyl)amino)naphthalene-1-sulfonic acid) and the quencher dye molecule dabcyl ((4-(4-(dimethylamino)phenyl)azo)benzoic acid). The labeled peptides ecot1 (T1) and ecot2 (T2) sequences used are as follows:
as §1
(§4) The first set of experiments was performed by addition of the bacterial culture directly into the assay solution. The protease OmpT is a membrane bound protein and would not be expected to be found secreted into the media. The first assay to be run used the peptide ecot1(T1) as substrate.

E. coli cells [5] = test: Protease assay in simulated wound fluid buffer (5% bovine serum albumin); type: cell-based, Escherichia coli; settings: tris-buffered saline plus 5% (by weight) bovine serum albumin, FIG. 4
Protocol: as §1
The protease assay was also tested in a simulated wound fluid buffer. The buffer was tris-buffered saline, as described above, to which 5% (by weight) bovine serum albumin was added. The protease assay was repeated, again using the 12 peptide substrate.

Pseudomonas = test: Protease assay, labeled peptide substrate with bacterial culture (cells and media); type: cell-based; settings: Pseudomonas culture incl. cells and media; 20 mM tris pH 7.4, 150 mM NaCl, 37° C.; FIG. 1
Protocol: as §3, §1, §4

[6] = system: protease from Pseudomonas secreted into solution; test: Protease assay with bacterial culture supernatants; type: biochemical
Protocol: as §1, §2

E. coli [7] = test: Protease assay with modified (lysine-tagged) substrate and bacterial cultures; type: cell-based, Escherichia coli; settings: cultures of Pseudomonas, S. aureus, S. epidermidis, S. salivarius, S. pyogenes, Enterococcus, Serratia, 37° C., FIG. 5
Protocol: The protease assay, described herein for detection of E. colt was run with the modified version of T2, T3. Bacteria (Pseudomonas, E. coli, S. aureus, S. epidermidis, S. salivarius, S. pyogenes, Enterococcus, and Serratia) were grown in an incubator overnight at 37° C. in 5 mL BHI (Brain Heart Infusion) media. The assays were run in 20 mM tris buffer (pH 7.4) with 150 mM NaCl added. The reaction was carried out with 7 μL of culture including cells and media and […] (5 mg/mT, in water) in 100 μL total volume at 37° C. The reaction was followed on a fluorimetric plate reader using an excitation wavelength of 355 nm and an emission wavelength of 485 nm.

CHHHAS(E-edans)VSRRRRRGG(K-dabcyl) [T4]
detection of E. coli by resin-bound peptide fluorescence (E. coli cultures): E. coli was detected

Dabcyl - KVSRRRRRGGD - Edans [T2]
detection of E. coli in presence of serum (cleavage, relative fluorescence) (E. coli [1]): detection of the presence of E. coli in the E. coli sample occurred
protease activity with culture supernatant [2]: did not show any reactivity
selectivity for membrane bound protease OmpT ([2]; conclusion from culture versus supernatant assays): selective for the E. coli outer membrane protease OmpT
reactivity with secreted protease, culture supernatants [3]: did not show any reactivity
protease activity / cleavage of substrate (relative fluorescence) (E. coli cells [4]): reacted with this substrate
selectivity of substrate among the bacteria tested (E. coli cells [4]; cultures of various bacteria incl. cells and media, FIG. 2): efficient and selective for E. coli
protease reactivity in simulated wound fluid (E. coli cells [5]): not affected by the simulated wound fluid buffer
selectivity and speed as probe in simulated wound fluid (E. coli cells [5]; various bacteria): rapid and selective probe for the detection of E. coli cells

Edans - DSRPVRRRRRPRVSK - Dabcyl (Edans-DSRPVRRRRRPRVSK-{Dabcyl′}) [T1]
protease activity / cleavage of substrate (relative fluorescence) (Pseudomonas): protease activity was observed
protease activity with culture supernatant [2]: not present in the supernatant
protease activity with culture supernatant [6]: still present
protease activity / cleavage of substrate (relative fluorescence) (E. coli cells [4]): protease activity was observed

KKAS(E-edans)VSRRRRRGG(K-dabcyl) (chain 1 KKASE(EDANS); chain 2 VSRRRRRGGK(Dabcyl″); not fully specified; printed as KKAS(E-edans)VSRRRRRGG(K-dabcyl)) [T3]
specificity of assay among bacteria (cleavage, relative fluorescence over time) (E. coli [7]): specific for E. coli
